Source: patent publication US8481553B2, “Antimetastatic compounds” (Brigham Young University, priority 2010, dated 2013)

Tested on: MDCK cells
Experiment: HGF-induced epithelial-mesenchymal transition / migration of MDCK cells on transwell filters (crystal violet densitometry)
Assay type: cell-based
Conditions: test compound 10 μM, then HGF, 24 hours, percentage value like the untreated controls (unstimulated cells = maximal effect, HGF treated cells without compound = nil effect); for inhibition at 10 µM: Canis lupus familiaris, MDCK
Protocol: MDCK cells were seeded at confluency into the wells of a transwell filter in DMEM with 10% fetal bovine serum. Cells were cultured for 24 hours. Test compounds, dissolved in DMSO, were added to each test well to a 10 μM final concentration, and then hepatocyte growth factor (HGF) was then added. The MDCK cells were cultured for 24 hours. Concurrently, controls treated with and without HGF and with no test compounds were also prepared.
After post-HGF addition culturing, transwell filters were prepared by repeated washing using ice cold PBS. The cells were then fixed with paraformaldehyde (3.7%) on ice for 15 minutes to the filters. After fixation, the transwell filters were washed repeatedly with PBS followed by staining with crystal violet for 15 minutes. The transwell filters were washed again with distilled water.
The upper surface of the transwell filters were swabbed using a cotton-tipped probe. The filters were photographed using a gel documentation system. Densitometry measurements were made on the test samples and compared with control samples.

SMILES	inhibition at 10 µM	Assay Value
CCc1ccccc1OCC(=O)N/N=C/c1ccc(Br)cc1 [Compound 14]	100%	–
C=CCc1ccccc1OCC(=O)N/N=C/c1cccc(Oc2ccccc2)c1 [Compound 3]	70.9%	–
C=CCc1ccccc1OCC(=O)N/N=C/c1cccc(CC=C)c1O [Compound 10]	44.8%	–
C=C(C)CSc1nc2sc3c(c2c(=O)[nH]1)CCCC3 [Compound A-14]	100%	–
N#Cc1ccccc1OCC(=O)N/N=C/c1ccc([N+](=O)[O-])cc1 [Compound 11]	83.7%	–
COc1cc(/C=C/c2ccc3cccc(O)c3n2)ccc1O [Compound B-3]	> 5%	–
Cc1cccc(OCC(=O)N/N=C/c2cccc(I)c2)c1 [Compound 16]	–	<5%
COc1cc(Cl)cc(/C=C/c2ccc3cccc(OC)c3n2)c1OC(C)=O [Compound B-22]	98.1%	–
CC1CCCCN1C(=O)CSc1nc2sc3c(c2c(=O)n1-c1ccccc1)CCC3 (stereo not drawn) [Compound A-22]	–	<5%
Cc1cc(C)c(OCC(=O)N/N=C/c2ccccc2)c(C)c1 [Compound 17]	–	<5%
O=c1[nH]c(CCc2ccccc2)nc2sc3c(c12)CCCC3 [Compound A-1]	96.9%	–
COc1cc(/C=C/c2ccc3cccc(OCc4ccccc4)c3n2)ccc1OC(C)=O [Compound B-18]	100%	–
Oc1cccc2ccc(/C=C/c3ccc(OCc4ccccc4)cc3)nc12 [Compound B-19]	–	91.0%
N#Cc1ccccc1OCC(=O)N/N=C/c1ccccc1O [Compound 5]	41.1%	–
COc1ccccc1/C=N/NC(=O)COc1c(C)cc(C)cc1C [Compound 18]	–	<5%
O=C(COc1ccccc1Br)N/N=C/c1ccccc1Br [Compound 37]	–	<5%
CCOC(=O)/C=C/CSc1nc2sc3c(c2c(=O)[nH]1)CCCC3 [Compound A-15]	71.3%	–
COc1cc(OC)c(OC)cc1/C=C/c1ccc2cccc(OC)c2n1 [Compound B-12]	50.6%	–
CCOc1cccc(/C=C/c2ccc3cccc(OC)c3n2)c1OC(C)=O [Compound B-15]	53.1%	–

SMILES	inhibition at 10 µM	Assay Value
O=C(COc1ccc2ccccc2c1)N/N=C/c1ccccc1 [Compound 31]	–	<5%
O=C(O)CCc1nc2sc3c(c2c(=O)[nH]1)CCCC3 [Compound A-12]	100%	–
COc1cccc2ccc(/C=C/c3ccc(Br)cc3)nc12 [Compound B-11]	61.4%	–
O=C(COc1ccc(Br)cc1)N/N=C/c1ccc(Cl)cc1 [Compound 38]	–	<5%
N#Cc1ccccc1OCC(=O)N/N=C/c1c(Cl)cccc1Cl [Compound 13]	86%	–
C=CCc1ccccc1OCC(=O)N/N=C/c1ccc(C)cc1C [Compound 1]	97%	–
O=C1c2cccc3cccc(c23)C(=O)N1CCCc1nc2sc3c(c2c(=O)[nH]1)CCCC3 [Compound A-16]	70.1%	–
N#Cc1ccccc1OCC(=O)N/N=C/c1ccc(Cl)cc1Cl [Compound 8]	55.1%	–
COc1cccc2ccc(/C=C/c3cc(I)ccc3OC(C)=O)nc12 [Compound B-21]	72.5%	–
O=C(CSc1nc2sc3c(c2c(=O)n1-c1ccccc1)CCCC3)c1cccs1 [Compound A-17]	–	<5%
N#Cc1ccccc1OCC(=O)N/N=C/c1ccccc1 [Compound 6]	44.2%	–
N#Cc1ccccc1OCC(=O)N/N=C/c1ccc(Cl)cc1 [Compound 7]	86.8%	–
COc1cc(/C=C/c2ccc3cccc(OC(C)=O)c3n2)ccc1O [Compound B-29]	94.2%	–
C=CCOc1ccccc1/C=N/NC(=O)COc1ccccc1CC=C [Compound 9]	49.5%	–
COc1cc(/C=C/c2ccc3cccc(OC)c3n2)ccc1OC(C)=O [Compound B-7]	> 5%	–
COc1ccc(/C=C/c2ccc3cccc(OC)c3n2)cc1Cl [Compound B-6]	> 5%	–
COc1cc(/C=C/c2ccc3cccc(O)c3n2)ccc1OCc1ccccc1 [Compound B-32]	91.8%	–
COc1cccc(/C=N/NC(=O)COc2cc(C)ccc2C(C)C)c1 [Compound 24]	–	<5%
Cc1nc(CSc2nc3[nH]ncc3c(=O)n2-c2ccccc2)cs1 [Compound A-8]	49.6%	–

SMILES	inhibition at 10 µM	Assay Value
Cc1ccc(OCC(=O)N/N=C/c2ccc(C(=O)O)cc2)c(C)c1 [Compound 22]	–	<5%
COc1cc(Br)cc(/C=C/c2ccc3cccc(OC)c3n2)c1OC [Compound B-23]	72.8%	–
COc1ccc(/C=C/c2ccc3cccc(O)c3n2)cc1C [Compound B-33]	90.7%	–
COc1ccc(/C=N/NC(=O)COc2ccccc2C)cc1 [Compound 19]	–	<5%
COc1cc(/C=C/c2ccc3cccc(OC)c3n2)cc(OC)c1OC [Compound B-1]	96.8%	–
Cc1cc(C)c(/C=N/NC(=O)COc2ccccc2)c(C)c1 [Compound 21]	–	<5%
O=c1[nH]c(SCc2ccccc2)nc2sc3c(c12)CCc1ccccc1-3 [Compound A-5]	77.3%	–
O=C1c2cccc3cccc(c23)C(=O)N1CCc1nc2sc3c(c2c(=O)[nH]1)CCCC3 [Compound A-3]	73.4%	–
CCOc1cc(/C=C/c2ccc3cccc(O)c3n2)ccc1OC [Compound B-2]	> 5%	–
N#Cc1ccccc1OCC(=O)N/N=C/c1cccc(Br)c1 [Compound 12]	67.7%	–
CC(C)Oc1ccc(/C=C/c2ccc3cccc(O)c3n2)cc1 [Compound B-31]	100%	–
Cc1noc(C)c1CSc1nc2sc3c(c2c(=O)n1-c1ccccc1)CCCC3 [Compound A-7]	31.3%	–
O=C(COc1cccc(Br)c1)N/N=C/c1ccc(Cl)cc1 [Compound 35]	–	<5%
COc1cc(Cl)cc(/C=C/c2ccc3cccc(O)c3n2)c1OC [Compound B-28]	100%	–
COc1ccccc1/C=N/NC(=O)COc1ccccc1OC [Compound 32]	–	<5%
Oc1cccc2ccc(/C=C/c3ccc4c(c3)OCO4)nc12 [Compound B-30]	94.4%	–
CCOc1cc(/C=C/c2ccc3cccc(OC(=O)CC)c3n2)cc(Br)c1OC [Compound B-13]	62.2%	–
COc1cc(/C=C/c2ccc3cccc(OC)c3n2)cc(Br)c1OC [Compound B-9]	> 5%	–
Oc1cccc2ccc(/C=C/c3ccc(OC4CCCC4)cc3)nc12 [Compound B-16]	–	100%
